Molecules are shown by their SMILES. Where two headings read alike, the source gives them in different places.

The test system of this experiment is A375 Sensitive cells. Briefly: Viability test, trypan blue exclusion, A375 Sensitive cells. As to conditions: Homo sapiens, A-375, viable cells as percentage of DMSO control. It is filed as cell-based, human. The source says: Different melanoma cell lines were purchased from the American Tissue Culture Collection: A375 and WM9 cells are mutated on B-Raf, CDKN2A and PTEN proteins; SKmel28 cells are mutated on B-Raf and P53 proteins; 1205Lu cells are mutated on B-Raf and PTEN proteins; G-361 cells are mutated on B-Raf and CDKN2A proteins; C8161 cells are mutated on B-Raf and K-Ras proteins; WM3912 cells are mutated on B-Raf and CDKN2A proteins; MeWo cells are mutated on P53 and CDKN2A proteins; WM3918 presents no mutations on characteristic proteins.
For trypan blue staining, […] of cells (melanoma and normal human cells) were aseptically transferred to a 1.5 mL clear Eppendorf tube and incubated for 3 min at room temperature with an equal volume of 0.4% trypan blue solution. Viable cells were counted and the results are expressed as the percentage of the value of control cells. All the experiments are performed 3 times in triplicate.
A375 Sensitive cells were treated with different concentrations of the synthesized molecules (5.0 μM or 10 μM) for different times (24 hr or 48 hr) or with DMSO (Control) for 12 or 48 hr. At the end of the stimulation, viable cells were counted using the trypan blue dye exclusion method. The results are normalized as percentages compare to the control.
A375 Sensitive cells were treated with 5 μM of CRO15 for different times (2 hr, 4 hr, 6 hr, 8 hr, 12 hr, 24 hr or 48 hr) or with 5 μM of PLX4032 (B-Raf inhibitor) for 48 hr or with DMSO (Control) for 48 hr. At the end of stimulation, viable cells were counted using the trypan blue dye exclusion method. The results are normalized as percentages compare to the control and data means±SEM of three independent experiments performed in triplicate *p<0.05; **p<0.01; ***p<0.001.
A375 Sensitive cells were treated with different concentrations of CRO15 (0.5 μM, 2.5 μM, 5.0 μM, 7.5 μM, 50 μM) for 48 hr or with 5 μM of PLX4032 (B-Raf inhibitor) for 48 hr or with DMSO (Control) for 48 hr. At the end of the stimulation, viable cells were counted using the trypan blue dye exclusion method. The results are normalized as percentages compare to the control and data means±SEM of three independent experiments performed in triplicate *p<0.05; **p<0.01; ***p<0.001.
A375 sensitive and resistant melanoma cells were treated with 5 μM of CRO15 for 48 hr or with 5 μM of PLX4032 for 48 hr or with DMSO (Control). At 48 hours, viable cells were counted using the trypan blue dye exclusion method. The results are normalized as percentages compare to the control and data means±SEM of three independent experiments performed in triplicate *p<0.05; **p<0.01; ***p<0.001.

Where [1] appears, read: 24 h, read-out: Viab A375 5 μM/ 24 h.
The mark [2] stands for this setting: 48 h, read-out: Viab A375 5 μM/ 48 h.
[3] abbreviates: 24 h, read-out: Viab A375 10 μM/ 24 h.
[4] abbreviates: 48 h, read-out: Viab A375 10 μM/ 48 h.

`N=C(NC(=N)c1ccc(C(F)(F)F)cc1)Nc1nc2ccccc2s1` [MTF 385, N—(N-(benzo[d]thiazol-2-yl)carbamimidoyl)-4-(trifluoromethyl)benzimidamide]: the viability at 5 µM is, setting by setting: under setting [1], 52.3%; under setting [2], 68.1%. For the same molecule, the viability at 10 µM under setting [3] was 86.6% and the viability at 10 µM under setting [4] was found to be 81.5%.

Take `N=C(NC(=N)c1cccc(Br)c1)Nc1nc2ccccc2s1` [MTF 242, N—(N-(benzo[d]thiazol-2-yl)carbamimidoyl)-3-bromobenzimidamide]: the viability at 5 µM is 29.2% under setting [1] and 8.1% under setting [2]. For the same molecule, the viability at 10 µM turned out to be 13.4% under setting [3] and 2.9% under setting [4].

Turning to `N=C(NC(=N)c1ccncc1)Nc1nc2ccccc2s1` [MTF 253, N—(N-(benzo[d]thiazol-2-yl)carbamimidoyl)isonicotinimidamide], the viability at 5 µM came to 27.8% under setting [1] and 6.9% under setting [2]. Also, the viability at 10 µM came to 14.9% under setting [3] and 4.1% under setting [4].

Turning to `N=C(NC(=N)c1cccc(C(F)(F)F)c1)Nc1nc2ccccc2s1` [MTF 343, N—(N-(benzo[d]thiazol-2-yl)carbamimidoyl)-3-(trifluoromethyl)benzimidamide], the viability at 5 µM under setting [1] was determined as 67.7% and the viability at 5 µM under setting [2] was determined as 52.9%. Besides, the viability at 10 µM is, setting by setting: under setting [3], 34.8%; under setting [4], 24.1%.

With `Nc1nc(Nc2ccccc2SSc2ccccc2Nc2nc(N)nc(-c3ccccn3)n2)nc(-c2ccccn2)n1` [MTF 321, N2,N2′-(disulfanediylbis(2,1-phenylene))bis(6-(pyridin-2-yl)-1,3,5-triazine-2,4-diamine)], the viability at 5 µM stood at 59.7% under setting [1] and 34.5% under setting [2]. For the same molecule, the viability at 10 µM reads like this: under setting [3], 53.8%; under setting [4], 32.1%.

`N=C(NC(=N)c1cccnc1)Nc1nc(-c2ccccc2)cs1` [MTF 273, N—(N-(4-phenylthiazol-2-yl)carbamimidoyl)nicotinimidamide]: the viability at 5 µM is 46% under setting [1] and 48% under setting [2]. Besides, the viability at 10 µM runs as follows: under setting [3], 100%; under setting [4], 100%.

Take `Cc1nc(NC(=N)NC(=N)c2ccccn2)sc1C` [MTF 297, N—(N-(4,5-dimethylthiazol-2-yl)carbamimidoyl)picolinimidamide]: the viability at 5 µM by setting is: under setting [1], 86.2%; under setting [2], 59.8%. Further, the viability at 10 µM runs as follows: under setting [3], 97.9%; under setting [4], 24.9%.

On to `N=C(NC(=N)c1cccnc1)Nc1nc(-c2cccc([N+](=O)[O-])c2)cs1` [MTF 260, N—(N-(4-(3-nitrophenyl)thiazol-2-yl)carbamimidoyl)nicotinimidamide], for which the viability at 5 µM was found to be 57% under setting [1] and 32% under setting [2]. Besides, the viability at 10 µM by setting is: under setting [3], 76.7%; under setting [4], 78%.

In the case of `N=C(NC(=N)c1ccccc1)Nc1nc2ccccc2s1` [MTF 248, N—(N-(benzo[d]thiazol-2-yl)carbamimidoyl)benzimidamide], the viability at 5 µM came out at 100% under setting [1] and 100% under setting [2]. Besides, the viability at 10 µM is, setting by setting: under setting [3], 80%; under setting [4], 138%.

For the molecule `Cc1nc(NC(=N)NC(=N)c2ccccc2Br)sc1C` [MTF 295, 2-bromo-N—(N-(4,5-dimethylthiazol-2-yl)carbamimidoyl)benzimidamide], the viability at 5 µM by setting is: under setting [1], 109%; under setting [2], 37.3%. For the same molecule, the viability at 10 µM under setting [3] worked out at 66.1% and the viability at 10 µM under setting [4] is 39.3%.

As for `COc1cc(C(=N)NC(=N)Nc2nc3ccccc3s2)cc(OC)c1OC` [MTF 382, N—(N-(benzo[d]thiazol-2-yl)carbamimidoyl)-3,4,5-trimethoxybenzimidamide], the viability at 5 µM is, setting by setting: under setting [1], 14.7%; under setting [2], 1.8%. The viability at 10 µM under setting [3] was found to be 17.4% and the viability at 10 µM under setting [4] amounted to 4.5%.
